According to US12552758B2, “Inhibitors of MLH1 and/or PMS2 for cancer treatment” (NeoPhore Limited, priority 2020, dated 2026):

Columns and labels:
[1] = biological target: recombinant N-terminal MLH1 (residues 15-340) (Homo sapiens (Human), UniProt P40692); assay: Fluorescence polarisation assay for MLH1 (protocol for all Examples except Examples 64, 76, 90 and 95); type: binding; details: FP probe displacement; 100 nM N-terminal MLH1, 5 nM probe compound, read after 15 minutes; all Examples except 64, 76, 90 and 95
Procedure: Fluorescence Polarisation Assay for MLH1 (Protocol for all Examples Except Examples 64, 76, 90 and 95)
(§1) Test compounds, as 10 mM DMSO stocks, were dispensed into a Black Fluotrac 200 384 well medium binding plate (Greiner Bio-One, item number 781076) using a Labcyte Echo acoustic liquid handler. For single point screening, test compounds were added to wells in columns 1-22 whilst DMSO was added to wells in columns 23 and 24 in order to normalise the plate. For potency determination, serial dilutions of test compounds were added to wells in columns 3-22 and DMSO volume was normalised across the plate.
20 μL assay buffer was added to all wells in columns 1 and 24 (column 24 only for single point screening) using a MultiDrop Combi (ThermoFisher). Plates were centrifuged for 1 minute at 250×g and were incubated at room temperature for 30 minutes prior to the addition of 20 μL of 2×(10 nM) of 5-((5-(4-((2-(2,4-dihydroxy-5-isopropylbenzoyl)isoindolin-5-yl)methyl)piperazin-1-yl)pentyl)carbamoyl)-2-(6-(dimethylamino)-3-(dimethyliminio)-3H-xanthen-9-yl)benzoate (referred to hereinafter as “probe compound”) in assay buffer (prepared from a 100 μM DMSO stock) with a MultiDrop Combi (ThermoFisher). The final concentration of N-terminal MLH1 was 100 nM and the final concentration of probe compound was 5 nM.
(§2) Compound plates were centrifuged for 1 minute at 250×g for 1 minute and were incubated at room temperature for 15 minutes before being read on a PheraStar FSX (fitted with 384-well aperture spoon and 540 590 590 FP optic module). The gain and focus were adjusted before each plate was read so that the polarisation of a no enzyme control (column 24) was equal to 35 mP. Data were normalised against the no inhibitor controls (column 23) and no enzyme controls (column 24).

[2] = biological target: recombinant N-terminal PMS2 (residues 1-365) (Homo sapiens (Human), UniProt P54278); assay: Fluorescence polarisation assay for PMS2; type: binding; details: FP probe displacement; 10 nM N-terminal PMS2, 5 nM probe compound, read after 1 hour
Procedure: Fluorescence Polarisation Assay for PMS2
as §1
20 μL assay buffer was added to all wells in columns 1 and 24 (column 24 only for single point screening) using a MultiDrop Combi (ThermoFisher). Plates were centrifuged for 1 minute at 250×g and were incubated at room temperature for 30 minutes prior to the addition of 20 μL of 2×([…]) of 5-((5-(4-((2-(2,4-dihydroxy-5-isopropylbenzoyl)isoindolin-5-yl)methyl)piperazin-1-yl)pentyl)carbamoyl)-2-(6-(dimethylamino)-3-(dimethyliminio)-3H-xanthen-9-yl)benzoate (referred to hereinafter as “probe compound”) in assay buffer (prepared from a 100 μM DMSO stock) with a MultiDrop Combi (ThermoFisher). The final concentration of N-terminal PMS2 was 10 nM and the final concentration of probe compound was 5 nM.
as §2, with “1 hour” for “15 minutes”

Chain of recombinant N-terminal MLH1 (residues 15-340) (P40692 15-340): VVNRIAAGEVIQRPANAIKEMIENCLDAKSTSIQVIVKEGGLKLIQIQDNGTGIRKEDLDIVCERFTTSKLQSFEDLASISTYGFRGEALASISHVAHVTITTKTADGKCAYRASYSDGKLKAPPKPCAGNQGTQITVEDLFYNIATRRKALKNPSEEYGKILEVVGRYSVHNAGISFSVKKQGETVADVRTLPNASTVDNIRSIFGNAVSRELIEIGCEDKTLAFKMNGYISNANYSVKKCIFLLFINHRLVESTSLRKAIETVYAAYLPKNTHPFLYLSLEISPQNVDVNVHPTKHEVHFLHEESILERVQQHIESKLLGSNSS
Chain of recombinant N-terminal PMS2 (residues 1-365) (P54278 1-365): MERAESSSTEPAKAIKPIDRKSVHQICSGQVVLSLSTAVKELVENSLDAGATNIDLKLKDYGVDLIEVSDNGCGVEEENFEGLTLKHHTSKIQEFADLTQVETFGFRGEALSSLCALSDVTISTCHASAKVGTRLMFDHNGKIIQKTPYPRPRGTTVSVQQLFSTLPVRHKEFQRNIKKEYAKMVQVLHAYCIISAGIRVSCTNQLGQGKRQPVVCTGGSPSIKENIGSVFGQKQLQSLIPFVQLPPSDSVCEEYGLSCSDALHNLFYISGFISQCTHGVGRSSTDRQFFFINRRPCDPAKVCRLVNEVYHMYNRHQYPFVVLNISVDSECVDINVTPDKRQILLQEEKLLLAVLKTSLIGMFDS

IC50 [1]	IC50 [2]	SMILES
1 to 10 µM	1 to 10 µM	O=C(c1c(O)cc(O)cc1OCc1ccccc1)N1Cc2cccnc2C1 [Example 18, (2-benzyloxy-4,6-dihydroxy-phenyl)-(5,7-dihydropyrrolo[3,4-b]pyridin-6-yl)methanone]
< 1 µM	< 1 µM	COc1cccc2c1CN(C(=O)c1c(O)cc(O)cc1OCc1ccccc1)C2 [Example 19, (2-benzyloxy-4,6-dihydroxy-phenyl)-(4-methoxyisoindolin-2-yl)methanone]
> 10 µM	> 10 µM	O=C(c1c(O)cc(O)cc1OCc1ccncn1)N1CCCC1 [Example 20, [2,4-dihydroxy-6-(pyrimidin-4-ylmethoxy)phenyl]-pyrrolidin-1-yl-methanone]
> 10 µM	> 10 µM	O=C(c1c(O)cc(O)cc1OCc1cc[nH]n1)N1CCCC1 [Example 21, (2-((1H-pyrazol-3-yl)methoxy)-4,6-dihydroxyphenyl)(pyrrolidin-1-yl)methanone]
< 1 µM	< 1 µM	O=C(c1c(O)cc(O)cc1OCc1ccccc1)N1Cc2ccc(Br)cc2C1 [Example 23, (2-benzyloxy-4,6-dihydroxy-phenyl)-(5-bromoisoindolin-2-yl)methanone]
< 1 µM	< 1 µM	COC(=O)c1ccc2c(c1)CN(C(=O)c1c(O)cc(O)cc1OCc1ccccc1)C2 [Example 24, methyl 2-(2-benzyloxy-4,6-dihydroxy-benzoyl)isoindoline-5-carboxylate]
< 1 µM	< 1 µM	COc1ccc2c(c1)CN(C(=O)c1c(O)cc(O)cc1OCc1ccccc1)C2 [Example 25, (2-benzyloxy-4,6-dihydroxy-phenyl)-(5-methoxyisoindolin-2-yl)methanone]
1 to 10 µM	< 1 µM	COc1cc2c(cc1OC)CN(C(=O)c1c(O)cc(O)cc1OCc1ccccc1)C2 [Example 26, (2-benzyloxy-4,6-dihydroxy-phenyl)-(5,6-dimethoxyisoindolin-2-yl)methanone]
1 to 10 µM	< 1 µM	CC(Oc1cc(O)cc(O)c1C(=O)N1Cc2ccccc2C1)c1ccccc1 (centres unmarked) [Example 27, [2,4-dihydroxy-6-(1-phenylethoxy)phenyl]-isoindolin-2-yl-methanone]
1 to 10 µM	< 1 µM	COc1ccc2c(c1)CN(C(=O)c1c(O)cc(O)cc1OC(C)c1ccccc1)C2 (centres unmarked) [Example 28, [2,4-dihydroxy-6-(1-phenylethoxy)phenyl]-(5-methoxyisoindolin-2-yl)methanone]
> 10 µM	–	Cc1c(O)cc(O)c(C(=O)N2CCc3ccccc3C2)c1OCc1ccccn1 [Example 45, 3,4-dihydro-1H-isoquinolin-2-yl-[4,6-dihydroxy-3-methyl-2-(2-pyridylmethoxy)phenyl]methanone]
> 10 µM	–	COc1ccc2c(c1)CN(C(=O)c1c(O)cc(O)c(C)c1OCc1ccccn1)CC2 [Example 46, [4,6-dihydroxy-3-methyl-2-(2-pyridylmethoxy)phenyl]-(7-methoxy-3,4-dihydro-1H-isoquinolin-2-yl)methanone]
> 10 µM	–	Cc1c(O)cc(O)c(C(=O)N2CCOc3ccccc32)c1OCc1ccccc1 [Example 67, (2-(Benzyloxy)-4,6-dihydroxy-3-methylphenyl)(2,3-dihydro-4H-benzo[b][1,4]oxazin-4-yl)methanone]

The next lines start with the compound.

SMILES	IC50 [1]	IC50 [2]
CC(Oc1cc(O)cc(O)c1C(=O)N1CCCC1)c1ccccc1 (single isomer, unassigned) [Example 13]	> 10 µM	> 10 µM
CC(Oc1cc(O)cc(O)c1C(=O)N1CCCC1)c1ccccc1 (single isomer, unassigned) [Example 14]	> 10 µM	> 10 µM
O=C(c1c(O)cc(O)cc1OCc1ncccn1)N1CCCC1 [Example 1, [2,4-dihydroxy-6-(pyrimidin-2-ylmethoxy)phenyl]-pyrrolidin-1-yl-methanone]	> 10 µM	> 10 µM
O=C(c1c(O)cc(O)cc1OC1CCCC1)N1CCCC1 [Example 2, (2-(cyclopentyloxy)-4,6-dihydroxyphenyl)(pyrrolidin-1-yl)methanone]	> 10 µM	> 10 µM
O=C(c1c(O)cc(O)cc1OCc1ccccc1)N1CCCC1 [Example 3, (2-benzyloxy-4,6-dihydroxy-phenyl)-pyrrolidin-1-yl-methanone]	> 10 µM	> 10 µM
O=C(c1c(O)cc(O)cc1OCc1ccccc1)N1Cc2ccccc2C1 [Example 4, (2-benzyloxy-4,6-dihydroxy-phenyl)-isoindolin-2-yl-methanone]	< 1 µM	< 1 µM
O=C(c1c(O)cc(O)cc1OCc1ccccc1)N1CCCCC1 [Example 5, (2-benzyloxy-4,6-dihydroxy-phenyl)-(1-piperidyl)methanone]	> 10 µM	> 10 µM
O=C(c1c(O)cc(O)cc1OCc1ccccc1)N1CC[C@H](O)C1 [Example 6, (2-benzyloxy-4,6-dihydroxy-phenyl)-[(3S)-3-hydroxypyrrolidin-1-yl]methanone]	> 10 µM	> 10 µM
O=C(c1c(O)cc(O)cc1OCc1ccccc1)N1CC[C@@H](O)C1 [Example 7, (2-benzyloxy-4,6-dihydroxy-phenyl)-[(3R)-3-hydroxypyrrolidin-1-yl]methanone]	> 10 µM	> 10 µM
O=C(c1c(O)cc(O)cc1OCc1ccccc1)N1CCC[C@@H](O)C1 [Example 8, (2-benzyloxy-4,6-dihydroxy-phenyl)-[(3R)-3-hydroxy-1-piperidyl]methanone]	> 10 µM	–
O=C(c1c(O)cc(O)cc1OCc1ccccc1)N1CCC[C@H](O)C1 [Example 9, (2-benzyloxy-4,6-dihydroxy-phenyl)-[(3S)-3-hydroxy-1-piperidyl]methanone]	> 10 µM	–
Cc1c(O)cc(O)c(C(=O)N2CCCC2)c1OCc1ccccc1 [Example 10, (2-benzyloxy-4,6-dihydroxy-3-methyl-phenyl)-pyrrolidin-1-yl-methanone]	> 10 µM	1 to 10 µM
CCc1c(O)cc(O)c(C(=O)N2CCCC2)c1OCc1ccccc1 [Example 11, (2-benzyloxy-3-ethyl-4,6-dihydroxy-phenyl)-pyrrolidin-1-yl-methanone]	> 10 µM	> 10 µM
O=C(c1c(O)cc(O)cc1OCc1ccccn1)N1CCCC1 [Example 12, [2,4-dihydroxy-6-(2-pyridylmethoxy)phenyl]-pyrrolidin-1-yl-methanone]	> 10 µM	> 10 µM
O=C(c1c(O)cc(O)cc1OCc1ccc(F)cc1)N1CCCC1 [Example 15, [2-[(4-fluorophenyl)methoxy]-4,6-dihydroxy-phenyl]-pyrrolidin-1-yl-methanone]	> 10 µM	> 10 µM
COc1ccc(COc2cc(O)cc(O)c2C(=O)N2CCCC2)cc1 [Example 16, [2,4-dihydroxy-6-[(4-methoxyphenyl)methoxy]phenyl]-pyrrolidin-1-yl-methanone]	> 10 µM	> 10 µM
Cc1cccc(COc2cc(O)cc(O)c2C(=O)N2CCCC2)c1 [Example 17, [2,4-dihydroxy-6-(m-tolylmethoxy)phenyl]-pyrrolidin-1-yl-methanone]	> 10 µM	–
O=C(c1c(O)cc(O)cc1OCc1c[nH]nn1)N1CCCC1 [Example 22, [2,4-dihydroxy-6-(1H-triazol-4-ylmethoxy)phenyl]-pyrrolidin-1-yl-methanone]	> 10 µM	> 10 µM
